Test results as given in US9526717B2, “Composition for treating immune diseases containing daurinol compound as active ingredient” (THE CATHOLIC UNIVERSITY OF KOREA INDUSTRY-ACADEMIC …, priority 2013, dated 2016).

How the values were obtained:
[1] = test system: phospho STAT3 (p705, p′727); assay: Western blot of phospho STAT3 in CD4+T cells; assay type: cell-based; conditions: CD4+T cells of normal mouse, daurinol 5 μM, anti-CD3 0.5 μg/mL, 3 days
Experimental: For the observation of changes in intracellular cell signaling factors treated with daurinol, a western blot analysis was performed. For this purpose, CD4+T cells were isolated from a normal mouse, treated with daurinol (5 μM) in a condition already treated with anti-CD3 antibodies (0.5 μg/mL), cultured for 3 days, and the cells were dissolved and proteins were extracted therefrom. Then, the extracted proteins were subjected to SDS-PAGE electrophoresis, and the proteins were electrically transferred onto a nitrocellulose membrane, subjected to a blocking reaction with 5% skim milk for 1 hour, reacted by attaching primary antibodies to STAT3, STAT3p705, STAT3p727, and phospho m-TOR thereto, reacting again by attaching secondary antibodies to the same, and sensitized onto a Kodak X-ray using enhanced chemilunimoecence (ECL), and thereby the protein expression levels of the genes were analyzed.

splenocyte cell line [2] = assay: IL-17 secretion of anti-CD3 treated splenocyte cell line (sandwich ELISA); assay type: cell-based; conditions: anti-CD3 antibodies 0.5 μg/mL
Experimental: For this purpose, a splenocyte cell line was treated with anti-CD3 antibodies (0.5 μg/mL) to induce the secretion of IL-17, or treated with LPS (100 ng/mL) to induce the secretion of TNF-α. […] The resultant was reacted in a 96-well plate with monoclonal anti-IL-17 or anti-TNF-α (2 μg/mL) at 4° C. overnight, and upon reaction, the non-specific binding was blocked using a blocking solution (1% BSA/PBST). IL-17 recombinant or TNF-α in a half amount was continuously diluted and used as standards, and the supernatant of cell culture was reacted at room temperature for 2 hours. Then, the biotinylated anti-IL-17 was reacted at room temperature for 2 hours, washed 4 times, and added with ExtraAvidin-alkaline phosphatase conjugate after dilution, and reacted at room temperature for 2 hours. Subsequently, PNPP/DEA solution was added thereto to fix color and absorbance was measured at 405 nm.

[3] = test system: splenocytes of an animal model with lupus; assay: IgG antibody formation in splenocytes of animal model with lupus (ELISA); assay type: cell-based; conditions: daurinol 1 μM and 5 μM, LPS 100 ng/mL, three days
Experimental: First, regarding the effect of controlling the autoantibody formation, the splenocytes of an animal model with lupus were treated with daurinol (1 μM and 5 μM) and LPS (100 ng/mL) for three days and the levels of IgG antibodies expressed thereof were evaluated by ELISA assay.

[4] = test system: splenocytes of an animal model with obesity arthritis; assay: Th17/Treg activity by flow cytometry in splenocytes of animal model with obesity arthritis; assay type: cell-based; conditions: daurinol 1 μM, anti-CD3 0.5 μg/mL, 3 days
Experimental: Additionally, for the confirmation of controlling the activity of Th17/Treg cells, the splenocytes of an animal model with obesity arthritis were treated with daurinol (1 μM) and anti-CD3 (0.5 μg/mL) and cultured for 3 days, and the activity of Th17/Treg cells controlled by daurinol were evaluated via flow cytometry.

splenocyte cell line [5] = assay: TNF-α secretion of LPS treated splenocyte cell line (sandwich ELISA); assay type: cell-based; conditions: 20 μM daurinol; LPS 100 ng/mL
Experimental: For this purpose, a splenocyte cell line was treated with anti-CD3 antibodies (0.5 μg/mL) to induce the secretion of IL-17, or treated with LPS (100 ng/mL) to induce the secretion of TNF-α. Then, the splenocyte cell line was treated with daurinol at concentrations of 0.5 μM, 2.5 μM, and 20 μM, and the supernatants were combined and the amount of IL-17 and TNF-α were examined by sandwich ELISA assay. The resultant was reacted in a 96-well plate with monoclonal anti-IL-17 or anti-TNF-α (2 μg/mL) at 4° C. overnight, and upon reaction, the non-specific binding was blocked using a blocking solution (1% BSA/PBST). IL-17 recombinant or TNF-α in a half amount was continuously diluted and used as standards, and the supernatant of cell culture was reacted at room temperature for 2 hours. Then, the biotinylated anti-IL-17 was reacted at room temperature for 2 hours, washed 4 times, and added with ExtraAvidin-alkaline phosphatase conjugate after dilution, and reacted at room temperature for 2 hours. Subsequently, PNPP/DEA solution was added thereto to fix color and absorbance was measured at 405 nm.

[6] = test system: animal model with collagen induced arthritis (CIA); assay: Histological examination of joints of CIA animals; assay type: in vivo, mouse; conditions: injected intravenously, three weeks after, H&E, Toluidine blue, Safranin O
CD4+ T cells = assay: Inhibition of T cell proliferation in allogenic reaction in vitro; assay type: cell-based, mouse; conditions: daurinol 0.5, 2, 10 and 20 μM
Experimental: For the confirmation of the effect of the daurinol compound on the inhibition of T cell proliferation and the expression amount of IL-17, the CD4+ T cells (2×10^5 cells) of a normal recipient (Balb/c, responder), and the T cell-removed splenocytes (2×10^5 cells) derived from a recipient (homogenic) or the splenocytes (2×10^5 cells) derived from a donor (C57BL/6, stimulator, allogenic) exposed to irradiation were added to each well of a 96-well round bottom plate, mixed, and cultured in vitro. In particular, the T cell proliferation and the secretion of IL-17 when an allogenic reaction was untreated with daurinol or treated with daurinol at 0.5 μM, 2 μM, 10 μM, and 20 μM, respectively, were observed.

[7] = test system: splenocytes of an animal model with obesity-derived rheumatoid arthritis; assay: IL-17 ELISA in splenocytes of animal model with obesity arthritis; assay type: cell-based; conditions: daurinol 1 μM and 5 μM, anti-CD3 0.5 μg/mL
Experimental: The splenocytes of an animal model with obesity-derived rheumatoid arthritis were treated with daurinol (1 μM and 5 μM) and anti-CD3 (0.5 μg/mL), and IL-17, the inflammatory cytokine expressed thereafter, was evaluated via ELISA assay.

Compound: COc1cc2c(-c3ccc4c(c3)OCO4)c3c(cc2cc1O)COC3=O [daurinol]
- expression of phospho STAT3 (p705, p′727) [1]: significant decrease
- secretion of IL-17 decreased to (splenocyte cell line [2]; 2 μM daurinol): 50%
- secretion of IL-17 (splenocyte cell line [2]; 20 μM daurinol): no secretion was observed
- formation of IgG antibodies (ELISA) [3]: inhibited the formation of IgG antibodies in a dose-dependent manner
- activity of Foxp3+ Treg cells (flow cytometry) [4]: induced the activity of Foxp3+ Treg cells
- expression of IL-17 (Th17, flow cytometry) [4]: significantly inhibited the expression of IL-17
- secretion of TNF-α decreased by (splenocyte cell line [5]): about 40%
- degree of destruction of joints and cartilage [6]: not exhibited to be severe
- T cell proliferation (CD4+ T cells): inhibited T cell proliferation in a dose-dependent manner
- expression of IL-17 (ELISA) [7]: inhibits the expression of IL-17 in a dose-dependent manner
